Data set [1] can be described thus: Cytotoxicity of germacrone on DH82 macrophages (MTT). Type of data set: cell-based, canine. To be noted: dog, DH82 macrophages; 48 h treatment; MTT; R^2 98.4. As to the method: (§1) Canine DH82 (ATCC®-CRL-10389TM) macrophages were maintained in Dulbecco’s modified Eagle’s medium (DMEM) (Thermo Fisher Scientific, Waltham, MA, USA) supplemented with 10% heat-inactivated FBS (Thermo Fisher Scientific, Waltham, MA, USA), and Pen-Strep at 37 °C in 5% CO2.
(§2) DH82 canine macrophages (5 × 10^4 per well) were seeded in 96-well plates in DMEM and kept overnight at 37 °C and 5% CO2. After washing with PBS, germacrone was added in varying concentrations (10, 50 and 100 μg/mL). After 48 h of treatment, cell viability was determined by the MTT method using a spectrophotometer (Multiskan EX, Thermo Electron Corporation, Vantaa, Finland) at 570 nm. The results were expressed as the cytotoxic concentration of 50% of the cell population (CC50). Amphotericin B (Gibco, Thermo Fisher Scientific, Grand Island, NY, USA) at 1 μg/mL was used as the reference drug. The assays were performed in two independent experiments, each in quadruplicate.

Another data set relates to DH82 canine macrophages. The data set is described as above. Type of data set: cell-based. To be noted: at concentrations of 50 and 100 μg/mL. As to the method:
as §1, §2

Data set [2] can be described thus: Cytotoxicity of pure compounds on Vero cells (MTT). Type of data set: cell-based. To be noted: African green monkey. As to the method:
African green monkey kidney cells (Vero cells) were maintained in Dulbecco’s modified Eagle’s minimal essential medium (DMEM) (Thermo Fisher Scientific, Waltham, MA, USA) supplemented with 10% FBS and 1% Pen-Strep at 37 °C under a humidified atmosphere of 5% CO2/95% air.
Cells seeded in 96-well flat-bottom microplates with 100 μL medium per well (initial densities 10^4 cells per well) were exposed for 48 h to serial dilutions (100, 75, 50, 25, 10 and 1 µg/mL) of the tested compounds in DMSO (<1% final concentration). Cell viability was analyzed by the MTT colorimetric assay method, and the purple-colored formazan precipitate was dissolved with 100 μL of DMSO [23].
Data was analyzed using STATGRAPHICS Centurion XIX (https://www.statgraphics.com) (Statgraphics Technologies, Inc., The Plains, VA, USA). The mammalian cells and trophozoites viability were tested with each compound in a dose–response experiment to calculate their relative potency (CC50 or IC50 value, respectively). IC50 (μg/mL) expresses the dose of EOs, extracts or pure compounds needed to produce 50% mortality of trophozoites, while CC50 (μg/mL) expresses the dose of compounds necessary to produce 50% mortality of Vero cells.

For a further data set, the system named is T. gallinae trophozoites. Briefly: Morphological evaluation by light microscopy (Diff-Quik), T. gallinae. The following applies: germacrone 100 µg/mL. Type of data set: cell-based, Trichomonas gallinae. An excerpt:
At each time point, quadruplicates were assigned per condition: growth control, germacrone, and the corresponding positive control (metronidazole or amphotericin B). For microscopy, quadruplicate wells corresponding to the same condition/time point were pooled prior to centrifugation to obtain sufficient biomass and a representative pellet for smear preparation. Pooled samples per condition/time point were centrifuged, resuspended in FBS and spread onto microscope slides. Once dried, samples were fixed and stained with Diff-Quik (Medion Diagnostic AG, […], Switzerland) following the manufacturer's instructions. Additionally, three wells per condition (triplicates) were used for the MTT assay, with absorbance measured by spectrophotometry after 48 h. Morphological changes were analyzed using light microscopy. Experiments were performed as independent biological replicates on different plates, and one Diff-Quik stained smear was obtained per condition and time point per biological replicate. For morphometric analysis, a total of 30 trophozoites per condition and time point were measured across the independent biological replicates and were selected by consecutive sampling during a predefined serpentine (zig-zag) scan across the preparation. Up to two eligible trophozoites per field (intact, well-focused and non-overlapping) were measured in sequential fields until n = 30 was reached, avoiding subjective selection of “representative” cells. Overlapping, partially visible, out-of-focus, edge-of-field, or debris-obscured trophozoites were excluded a priori. Trophozoites were photographed using a researcher's mobile phone mounted to the microscope ocular. Calibration was performed at the same magnification using a stage micrometre and applied in ImageJ v. 1.54d. One Diff-Quik stained smear was obtained per condition/time point per biological replicate Cell length, cell width, cell surface, nuclear length, nuclear width, axoneme (only Giardia), and length of axostyle (only T. gallinae) were measured with ImageJ software, and the data were recorded in an Excel database for statistical analysis. The Shapiro-Wilk test was used to assess the normality of the morphological variables. When data followed a normal distribution, Student's t-test was applied; otherwise, non-parametric tests, such as the Mann-Whitney U test, was used. Values of p < 0.05 were considered significant. For the morphological analysis, the mean, standard deviation, median, and interquartile range were calculated using SPSS version 20 (IBM Corp., Armonk, NY, USA).

Setting [3] is: metronidazole 10 µg/mL, 0.5 and 48 h, control DMSO 1%.

Values after ≈ are worked out from the molar mass of the structure shown. “Also recorded” adds a separate entry of the source.

As usually defined, the CC50 is the concentration that lowers cell viability or growth by half. For `CC(C)=C1C/C=C(\C)CC/C=C(\C)CC1=O` [Compound 2, germacrone], it took 12.9 mg/L (≈ 59.1 µM) to reach half-maximal cytotoxicity in data set [1] (CC50 at 48 h). The “effect on canine macrophages” value in the data set with DH82 canine macrophages is on record as “lethal”. Besides, in data set [2], the CC50 at 48 h was approximately 100 mg/L (≈ 458 µM). In addition, in the data set with T. gallinae trophozoites (setting [3]), the “axostyle length vs control” value is reported as “decreased at 0.5 h; also recorded: after 48 h, it increased”; the “cell length vs control” value is recorded as “increase after 48 h”; the “cell surface area vs control” value is on record as “decreased transiently at 0.5 h but increased at 48 h”; the “cell width vs control” value was “significant decrease exclusively in germacrone-treated parasites compared to the control at 0.5 h”. For the same molecule, in the data set on T. gallinae trophozoites (setting [3]), the “nuclear length vs control” value is “increased upon germacrone exposure” and the “nuclear width vs control” value is “diminished at 0.5 h; also recorded: By 48 h, nuclear width increased”. For the same molecule, the “morphological changes (light microscopy)” value with T. gallinae trophozoites (48 h of exposure, Diff-Quik) is “elongation of the cytoplasm and the nucleus”.

The record behind these values is PMC12841663, “Antiprotozoal Potential of Cultivated Geranium macrorrhizum Against Giardia duodenalis, Trichomonas gallinae and Leishmania infantum” (International Journal of Molecular Sciences, 2026).
